Reference: patent US5998405A, “Fused tropane-derivatives as neurotransmitter reuptake inhibitors” (NeuroSearch A/S, priority 1996, dated 1999)
Counter-ions that a name gives are not always drawn.

Columns and labels:
Assay type in all cases: biochemical, Wistar rat
[1] = biological target: T1, ^3 H-5-hydroxytryptamine (serotonin) uptake in cortical synaptosomes (Rattus norvegicus, UniProt P31652); experiment: In vitro inhibition of 3H-5-hydroxytryptamine (3H-5-HT, serotonin) uptake in cortical synaptosomes; details: 3H-5-HT 1 nM, 30 min at 37° C.
T1 construct: Cerebral cortices from male Wistar rats (150-200 g) are homogenized; from tissue; host or cells: cerebral cortex of male Wistar rats, P2 synaptosomal pellet
From the text: (§1) The compounds of the invention have been tested for their ability to inhibit reuptake of dopamine(DA) noradrenaline(NA) and serotonine(5-HT) in synaptosomes.
(§2) Specific neurotransmitter transporters/uptake sites on nerve terminals presumably function to terminate neuronal signaling by removing the neurotransmitters dopamine, noradrenaline and serotonine, respectively, from the synaptic cleft. The activity of the transporter integral proteins can be measured in vitro by synaptosomal uptake of ^3 H-dopamine, ^3 H-noradrenaline and ^3 H-serotonine, respectively.
In Vitro Inhibition of ^3 H-5-hydroxytryptamine (^3 H-5-HT, Serotonin) Uptake in Cortical Synaptosomes
(§3) Tissue preparation: Preparations are performed at 0-4° C. unless otherwise indicated. Cerebral cortices from male Wistar rats (150-200 g) are homogenized for 5-10 sec in 100 volumes of ice-cold 0.32M sucrose containing 1 mM pargyline using an Ultra-Turrax homogenizer. Monoamine oxidase activity will be inhibited in the presence of pargyline. The homogenate is centrifuged at 1000×g for 10 min. The resulting supernatant is then centrifuged at 27,000×g for 50 min and the supernatant is discarded. The pellet (P2) is resuspended in oxygenated (equilibrated with an atmosphere of 96% O2 : 4% CO2 for at least 30 min) Krebs-Ringer incubation buffer (1000 ml per g of original tissue) at pH 7.2 containing 122 mM NaCl, 0.16 mM EDTA, 4.8 mM KCl, 12.7 mM Na2 HPO4, 3.0 mM NaH2 PO4, 1.2 mM MgSO4, 1 mM CaCl2, 10 mM glucose and 1 mM ascorbic acid.
(§4) Assay: Aliquots of 4.0 ml tissue suspension are added to 100 μl of test solution and 100 μl of ^3 H-5-HT (1 nM, final concentration), mixed and incubated for 30 min at 37° C. Non-specific uptake is determined using citalopram (1 μM, final concentration). After incubation the samples are poured directly onto Whatman GF/C glass fibre filters under suction. The filters are then washed three times with 5 ml of ice-cold 0.9% (w/v) NaCl solution. The amount of radioactivity on the filters is determined by conventional liquid scintillation counting. Specific uptake is calculated as the difference between total uptake and non-specific uptake.
The test value is given as IC50 (the concentration (μM) of the test substance which inhibits the specific binding of ^3 H-5-HT by 50%).

[2] = biological target: T2, ^3 H-noradrenaline uptake in hippocampal synaptosomes (Rattus norvegicus, UniProt Q63380); experiment: In vitro inhibition of 3H-noradrenaline (3H-NA) uptake in hippocampal synaptosomes; details: 3H-NA 1 nM, 90 min at 37° C.
T2 construct: Hippocampi from male Wistar rats (150-200 g) are homogenized; from tissue; host or cells: hippocampus of male Wistar rats, P2 synaptosomal pellet
From the text: as §1, §2
In Vitro Inhibition of ^3 H-noradrenaline (^3 H-NA) Uptake in Hippocampal Synaptosomes
as §3, with “indicated. Hippocampi” for “indicated. Cerebral cortices”, “buffer (2000” for “buffer (1000”, “MgSO4, 0.97” for “MgSO4, 1”
as §4, with “H-NA” for “H-5-HT”, “90” for “30”, “desipramine” for “citalopram”
The test value is given as IC50 (the concentration (μM) of the test substance which inhibits the specific binding of ^3 H-NA by 50%).

[3] = biological target: T3, ^3 H-dopamine uptake in striatal synaptosomes (Rattus norvegicus, UniProt P23977); experiment: In vitro inhibition of 3H-dopamine (3H-DA) uptake in striatal synaptosomes; details: 3H-DA 1 nM, 25 min at 37° C.
T3 construct: Corpi striati from male Wistar rats (150-200 g) are homogenized; from tissue; host or cells: striatum (corpus striatum) of male Wistar rats, P2 synaptosomal pellet
From the text: as §1, §2
In Vitro Inhibition of ^3 H-dopamine (^3 H-DA) Uptake in Striatal Synaptosomes
as §3, with “preparations:” for “preparation:”, “Corpi striati” for “Cerebral cortices”, “(8000” for “(1000”
as §4, with “H-DA” for “H-5-HT”, “25” for “30”, “benztropine (10” for “citalopram (1”
The test value is given as IC50 (the concentration (μM) of the test substance which inhibits the specific binding of ^3 H-DA by 50%).

T2 sequence (Q63380 1-617): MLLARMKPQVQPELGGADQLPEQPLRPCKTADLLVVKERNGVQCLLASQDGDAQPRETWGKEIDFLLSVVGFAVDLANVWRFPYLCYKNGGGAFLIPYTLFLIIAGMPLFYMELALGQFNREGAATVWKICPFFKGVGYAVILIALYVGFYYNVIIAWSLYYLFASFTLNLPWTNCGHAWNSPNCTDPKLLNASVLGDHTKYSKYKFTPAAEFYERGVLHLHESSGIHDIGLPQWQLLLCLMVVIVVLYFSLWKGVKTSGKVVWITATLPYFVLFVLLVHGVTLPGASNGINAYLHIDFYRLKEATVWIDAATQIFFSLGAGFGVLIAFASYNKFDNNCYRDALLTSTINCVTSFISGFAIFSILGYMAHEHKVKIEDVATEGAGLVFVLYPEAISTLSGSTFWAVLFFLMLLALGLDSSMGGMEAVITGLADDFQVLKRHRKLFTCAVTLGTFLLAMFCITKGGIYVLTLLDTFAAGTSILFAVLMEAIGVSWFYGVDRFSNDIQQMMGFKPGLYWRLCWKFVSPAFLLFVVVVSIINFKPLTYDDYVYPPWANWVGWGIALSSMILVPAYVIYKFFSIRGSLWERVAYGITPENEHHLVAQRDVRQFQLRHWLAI
T3 sequence (P23977 whole entry): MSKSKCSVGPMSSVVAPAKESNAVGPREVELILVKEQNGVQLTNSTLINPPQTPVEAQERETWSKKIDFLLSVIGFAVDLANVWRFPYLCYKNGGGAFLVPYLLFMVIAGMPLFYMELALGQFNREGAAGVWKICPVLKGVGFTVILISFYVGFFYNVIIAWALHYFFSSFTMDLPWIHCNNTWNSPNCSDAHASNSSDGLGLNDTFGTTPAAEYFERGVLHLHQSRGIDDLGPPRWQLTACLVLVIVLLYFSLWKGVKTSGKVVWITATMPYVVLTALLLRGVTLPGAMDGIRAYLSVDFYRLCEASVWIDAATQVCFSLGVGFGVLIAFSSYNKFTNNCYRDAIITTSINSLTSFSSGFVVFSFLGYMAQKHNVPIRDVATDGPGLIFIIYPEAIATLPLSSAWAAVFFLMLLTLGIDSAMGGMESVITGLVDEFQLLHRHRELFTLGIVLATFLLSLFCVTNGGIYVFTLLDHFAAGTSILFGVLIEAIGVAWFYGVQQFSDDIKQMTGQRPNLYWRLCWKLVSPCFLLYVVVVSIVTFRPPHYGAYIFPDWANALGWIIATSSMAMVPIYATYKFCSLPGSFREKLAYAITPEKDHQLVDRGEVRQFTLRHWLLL
T1 sequence (P31652 whole entry): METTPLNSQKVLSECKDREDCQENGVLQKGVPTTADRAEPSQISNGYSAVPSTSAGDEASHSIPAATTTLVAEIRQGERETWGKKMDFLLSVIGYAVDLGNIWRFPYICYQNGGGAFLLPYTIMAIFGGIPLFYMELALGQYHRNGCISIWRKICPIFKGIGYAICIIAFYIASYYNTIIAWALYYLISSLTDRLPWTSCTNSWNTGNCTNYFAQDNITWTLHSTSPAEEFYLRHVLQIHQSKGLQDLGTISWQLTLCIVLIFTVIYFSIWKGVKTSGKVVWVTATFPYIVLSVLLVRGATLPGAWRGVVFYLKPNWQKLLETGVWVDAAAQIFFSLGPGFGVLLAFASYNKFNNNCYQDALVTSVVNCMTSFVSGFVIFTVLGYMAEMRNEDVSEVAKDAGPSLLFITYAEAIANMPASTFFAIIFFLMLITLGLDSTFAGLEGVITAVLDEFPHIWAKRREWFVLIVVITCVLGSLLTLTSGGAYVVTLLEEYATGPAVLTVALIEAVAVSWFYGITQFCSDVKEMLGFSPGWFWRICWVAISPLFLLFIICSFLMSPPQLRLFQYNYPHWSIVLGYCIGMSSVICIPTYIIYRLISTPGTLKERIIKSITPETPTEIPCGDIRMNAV

| SMILES | IC50 [1] [nM] | IC50 [2] [nM] | IC50 [3] [nM] |
| --- | --- | --- | --- |
| OC1CCN2[C@H]3CC[C@@H]2[C@@H]1[C@@H](c1ccc(Cl)c(Cl)c1)C3 (stereo partly drawn) [(1S,2S,4S,7R)-2-(3,4-Dichlorophenyl)-8-azatricyclo[5.4.0.0^4,8]undecan-11-ol] | 2.8 | 4.1 | 75 |
| CON=C1CCN2[C@H]3CC[C@@H]2[C@@H]1[C@@H](c1ccc(Cl)c(Cl)c1)C3 [(1S,2S,4S,7R)-2-(3,4-Dichlorophenyl)-8-azatricyclo[5.4.0.0^4,8]undecan-11-one O-methyl-oxime] | 3.3 | 2 | 12 |
| O=C1CCN2[C@H]3CC[C@@H]2[C@@H]1[C@@H](c1ccc(Cl)c(Cl)c1)C3 [(1S,2S,4S,7R)-2-(3,4-Dichlorophenyl)-8-azatricyclo[5.4.0.0^4,8]undecan-11-one] | 7.5 | 35 | 180 |
| COC1CN2[C@H]3CC[C@@H]2[C@@H]1[C@@H](c1ccc(Cl)c(Cl)c1)C3 (stereo partly drawn) [(1S,3S,4S,8R)-3-(3 ,4-Dichlorophenyl)-5-methoxy-7-azatricyclo[5.3.0.0^4,8]decane] | 0.1 | 1.4 | 22 |
| CC(=O)OC1CN2[C@H]3CC[C@@H]2[C@@H]1[C@@H](c1ccc(Cl)c(Cl)c1)C3 (stereo partly drawn) [(1S,3S,4S,8R)-3-(3,4-Dichlorophenyl)-7-azatricyclo[5.3.0.0^4,8]dec-5-yl acetate fumarate] | 7.5 | 6.1 | 210 |
| OC1CN2[C@H]3CC[C@@H]2[C@@H]1[C@@H](c1ccc(Cl)c(Cl)c1)C3 (stereo partly drawn) [(1S,3S,4S,8R)-3-(3,4-Dichlorophenyl)-7-azatricyclo[5.3.0.0^4,8]decan-5-ol] | 1.8 | 7.4 | 250 |
| CON=C1CN2[C@H]3CC[C@@H]2[C@@H]1[C@@H](c1ccc(Cl)c(Cl)c1)C3 [(1S,3S,4S,8R)-3-(3,4-Dichlorophenyl)-7-azatricyclo[5.3.0.0^4,8]decan-5-one O-methyl-oxime] | 3.2 | 0.9 | 16 |
| O=C1CN2[C@H]3CC[C@@H]2[C@@H]1[C@@H](c1ccc(Cl)c(Cl)c1)C3 [(1S,3S,4S,8R)-3-(3,4-Dichlorophenyl)-7-azatricyclo[5.3.0.0^4,8]decan-5-one] | 2.6 | 5.2 | 120 |
